Test results taken from publication PMC4965013, “Open Source Drug Discovery with the Malaria Box Compound Collection for Neglected Diseases and Beyond” (PLoS Pathogens, 2016).
pEC50, pIC50: −log10 of the molar value. Read-outs that look alike come from different tables or passages of the source.

What was measured:
P. falciparum = assay: EC50 listed in S2 Table Metabolomics (used to set the concentration tested); assay type: cell-based; conditions: Plasmodium falciparum; EC50 used for Factor_XEC50 in metabolomics; read-out: EC50_nM
P. falciparum 3D7 = assay: [3H]-hypoxanthine growth inhibition, modified HCO3- or O2; assay type: cell-based; conditions: for pIC50: Plasmodium falciparum
[1] = tested on: P. falciparum 3D7 trophozoites; assay: Metabolomic fingerprint profiling LC-MS; assay type: cell-based, Plasmodium falciparum; design: UDP-D-glucose / ADP-D-glucose: unit not given here; conditions: for Acetyllysine / N-acetyl-L-ornithine / N-carbamoyl-L-aspartate / NADPH / dAMP / dCMP / dTDP / dTMP / dTTP / dihydroorotate / orotate / DLH / DLS/SDL/SID / PD / PEE / PVNF / 3-phosphoglycerate / ADP-D-glucose / ATP / CDP / D-sedoheptulose-1/7-phosphate / FAD / GMP / NAD+ / NADP+ / Octoluse Bisphosphate / Pyroglutamic acid / UDP-D-glucose / UDP-D-glucuronate / UDP-N-acetyl-glucosamine / UDP / UMP / UTP / a-ketoglutarate / citrate/isocitrate / cytidine / dATP / dGMP/AMP / fumarate / glucose-1/6-phosphate / glycerate / guanine / guanosine / hypoxanthine / indole / inosine / nicotinate / ornithine / phosphoenolpyruvate / pyruvate / ribose-phosphate / sarcosine/alanine / sn-glycerol-3-phosphate / succinate/methylmalonic acid / uridine / xanthosine: S2 Table Metabolomics; for Acetyllysine: metabolite Acetyllysine; for N-acetyl-L-ornithine: metabolite N-acetyl-L-ornithine; for N-carbamoyl-L-aspartate: metabolite N-carbamoyl-L-aspartate; for NADPH: metabolite NADPH; for dAMP: metabolite dAMP; for dCMP: metabolite dCMP; for dTDP: metabolite dTDP; for dTMP: metabolite dTMP; for dTTP: metabolite dTTP; for dihydroorotate: metabolite dihydroorotate; for orotate: metabolite orotate; for DLH: peptide DLH; for DLS/SDL/SID: peptide DLS/SDL/SID; for PD: peptide PD; for PEE: peptide PEE; for PVNF: peptide PVNF; for 3-phosphoglycerate: metabolite 3-phosphoglycerate; for ADP-D-glucose: metabolite ADP-D-glucose; for ATP: metabolite ATP; for CDP: metabolite CDP; for CDP / D-sedoheptulose-1/7-phosphate / GMP / Octoluse Bisphosphate / UDP / UMP / UTP / citrate/isocitrate / dGMP/AMP / fumarate / glucose-1/6-phosphate / glycerate / guanine / guanosine / inosine / pyruvate / sarcosine/alanine / succinate/methylmalonic acid / uridine / xanthosine: change in metabolite level after compound treatment; for D-sedoheptulose-1/7-phosphate: metabolite D-sedoheptulose-1/7-phosphate; for FAD: metabolite FAD; for GMP: metabolite GMP; for NAD+: metabolite NAD+; for NADP+: metabolite NADP+; for Octoluse Bisphosphate: metabolite Octoluse Bisphosphate; for Pyroglutamic acid: metabolite Pyroglutamic acid; for UDP-D-glucose: metabolite UDP-D-glucose; for UDP-D-glucuronate: metabolite UDP-D-glucuronate; for UDP-N-acetyl-glucosamine: metabolite UDP-N-acetyl-glucosamine; for UDP: metabolite UDP; for UMP: metabolite UMP; for UTP: metabolite UTP; for a-ketoglutarate: metabolite a-ketoglutarate; for citrate/isocitrate: metabolite citrate/isocitrate; for cytidine: metabolite cytidine; for dATP: metabolite dATP; for dGMP/AMP: metabolite dGMP/AMP; for fumarate: metabolite fumarate; for glucose-1/6-phosphate: metabolite glucose-1/6-phosphate; for glycerate: metabolite glycerate; for guanine: metabolite guanine; for guanosine: metabolite guanosine; for hypoxanthine: metabolite hypoxanthine; for indole: metabolite indole; for inosine: metabolite inosine; for 2_3-Diphosphoglyceric acid / 4-phosphopantothenate / 6-phospho-D-gluconate / FMN / IMP / Pyrophosphate / Sedoheptoluse bisphosphate / cyclic-AMP / glutathione disulfide / lactate / myo-inositol: metabolite level change after treatment; for nicotinate: metabolite nicotinate; for ornithine: metabolite ornithine; for phosphoenolpyruvate: metabolite phosphoenolpyruvate; for pyruvate: metabolite pyruvate; for ribose-phosphate: metabolite ribose-phosphate; for sarcosine/alanine: metabolite sarcosine/alanine; for sn-glycerol-3-phosphate: metabolite sn-glycerol-3-phosphate; for succinate/methylmalonic acid: metabolite succinate/methylmalonic acid; for uridine: metabolite uridine; for xanthosine: metabolite xanthosine
[2] = 3D7, read-out: P. falciparum 3D7 IC50 1% O2, 1% O2 hypoxia
[3] = 3D7, read-out: P. falciparum 3D7 IC50 5% O2

SMILES: CN(C)CCCNc1c2ccccc2nc2ccccc12 [MMV000448]
- pEC50 (P. falciparum): 6.63
- fold change (IC50normal/ IC50hypoxia) (P. falciparum 3D7): 6.1
- fold change (IC50reduced/IC50normal) (P. falciparum 3D7): 3.1
- pIC50 (P. falciparum 3D7; [2]): 7.23
- pIC50 (P. falciparum 3D7; [3]): 6.44
- pIC50 (P. falciparum 3D7; 3D7, read-out: P. falciparum 3D7 IC50 HCO3- (2g/L), standard media): 6.72
- pIC50 (P. falciparum 3D7; 3D7, HCO3- reduced media, read-out: P. falciparum 3D7 IC50 HCO3- reduced): 6.23
- Acetyllysine [1]: -0.6096
- N-acetyl-L-ornithine [1]: -0.1966
- N-carbamoyl-L-aspartate [1]: -0.218
- NADPH [1]: 1.387
- dAMP [1]: -0.07728
- dCMP [1]: 0.0599
- dTDP [1]: -0.2724
- dTMP [1]: -0.1401
- dTTP [1]: 0.115
- dihydroorotate [1]: -0.03007
- orotate [1]: -0.5122
- DLH [1]: -0.2186
- DLS/SDL/SID [1]: 0.06919
- PD [1]: 0.358
- PEE [1]: 0.9721
- PVNF [1]: 0.2725
- 3-phosphoglycerate [1]: -0.1099
- ADP-D-glucose [1]: 0.3085
- ATP [1]: -0.1913
- CDP [1]: 0.02837
- D-sedoheptulose-1/7-phosphate [1]: -0.03224
- FAD [1]: -0.02095
- GMP [1]: -0.2572
- NAD+ [1]: -0.1627
- NADP+ [1]: 0.3266
- Octoluse Bisphosphate [1]: -0.105
- Pyroglutamic acid [1]: -0.3472
- UDP-D-glucose [1]: -0.06298
- UDP-D-glucuronate [1]: -0.1533
- UDP-N-acetyl-glucosamine [1]: -0.07606
- UDP [1]: 0.1622
- UMP [1]: -0.1529
- UTP [1]: 0.06952
- a-ketoglutarate [1]: -0.5075
- citrate/isocitrate [1]: -0.2451
- cytidine [1]: -0.2174
- dATP [1]: 0.09204
- dGMP/AMP [1]: -0.1732
- fumarate [1]: 0.04552
- glucose-1/6-phosphate [1]: -0.4595
- glycerate [1]: -0.9564
- guanine [1]: 0.005054
- guanosine [1]: -0.4079
- hypoxanthine [1]: -0.5072
- indole [1]: -0.3067
- inosine [1]: -0.6058
- 2_3-Diphosphoglyceric acid [1]: 0.03945
- 4-phosphopantothenate [1]: -0.1337
- 6-phospho-D-gluconate [1]: 0.01561
- FMN [1]: -0.3847
- IMP [1]: -0.1057
- Pyrophosphate [1]: 0.1028
- Sedoheptoluse bisphosphate [1]: -0.05677
- cyclic-AMP [1]: -0.3139
- glutathione disulfide [1]: -0.02692
- lactate [1]: -0.5186
- myo-inositol [1]: -0.8275
- nicotinate [1]: -0.004192
- ornithine [1]: -0.09669
- phosphoenolpyruvate [1]: -0.129
- pyruvate [1]: -0.7877
- ribose-phosphate [1]: -0.2371
- sarcosine/alanine [1]: 0.03174
- sn-glycerol-3-phosphate [1]: -0.01243
- succinate/methylmalonic acid [1]: -0.2869
- uridine [1]: -0.8523
- xanthosine [1]: -0.9083

SMILES: CCOC(=O)c1cn(CC)c2cc(N(C)CCc3ccc(OC)c(OC)c3)c(F)cc2c1=O [MMV665977]
- pEC50 (P. falciparum): 6.69
- fold change (IC50normal/ IC50hypoxia) (P. falciparum 3D7): 4.1
- pIC50 (P. falciparum 3D7; [2]): 7.07
- pIC50 (P. falciparum 3D7; [3]): 6.46
- Acetyllysine [1]: -0.2007
- N-acetyl-L-ornithine [1]: 0.023
- N-carbamoyl-L-aspartate [1]: 3.959
- NADPH [1]: -0.01115
- dAMP [1]: 0.7523
- dCMP [1]: 0.5464
- dTDP [1]: 0.1785
- dTMP [1]: 0.2344
- dTTP [1]: -0.3388
- dihydroorotate [1]: 4.609
- orotate [1]: -0.8094
- DLH [1]: -0.4948
- DLS/SDL/SID [1]: -0.3029
- PD [1]: 0.1633
- PEE [1]: -0.1468
- PVNF [1]: -0.5192
- 3-phosphoglycerate [1]: -0.3617
- ADP-D-glucose [1]: 0.08874
- ATP [1]: -0.1759
- CDP [1]: 0.4208
- D-sedoheptulose-1/7-phosphate [1]: 0.7585
- FAD [1]: 0.2291
- GMP [1]: -0.3238
- NAD+ [1]: 0.1079
- NADP+ [1]: 0.05477
- Octoluse Bisphosphate [1]: -0.07826
- Pyroglutamic acid [1]: -0.2687
- UDP-D-glucose [1]: 0.1563
- UDP-D-glucuronate [1]: 0.07018
- UDP-N-acetyl-glucosamine [1]: 0.07391
- UDP [1]: 0.2133
- UMP [1]: -0.8829
- UTP [1]: -1.518
- a-ketoglutarate [1]: -0.594
- citrate/isocitrate [1]: -0.7044
- cytidine [1]: 0.327
- dATP [1]: 0.6974
- dGMP/AMP [1]: -0.4295
- fumarate [1]: 0.007291
- glucose-1/6-phosphate [1]: 0.2816
- glycerate [1]: -0.4808
- guanine [1]: 0.3502
- guanosine [1]: 0.225
- hypoxanthine [1]: -0.2655
- indole [1]: -0.1099
- inosine [1]: 0.2015
- 2_3-Diphosphoglyceric acid [1]: 0.344
- 4-phosphopantothenate [1]: -0.03263
- 6-phospho-D-gluconate [1]: 0.2163
- FMN [1]: 0.1874
- IMP [1]: 0.1512
- Pyrophosphate [1]: 0.2053
- Sedoheptoluse bisphosphate [1]: 0.01379
- cyclic-AMP [1]: 0.02919
- glutathione disulfide [1]: 0.2163
- lactate [1]: -0.4098
- myo-inositol [1]: -0.567
- nicotinate [1]: -0.4053
- ornithine [1]: 0.1382
- phosphoenolpyruvate [1]: -0.3385
- pyruvate [1]: -0.6681
- ribose-phosphate [1]: -0.2449
- sarcosine/alanine [1]: 0.1312
- sn-glycerol-3-phosphate [1]: 0.2048
- succinate/methylmalonic acid [1]: -0.4008
- uridine [1]: -0.5319
- xanthosine [1]: -0.3168
